Like-named read-outs stand apart in the source and are kept apart here.
Columns and labels:
BxPC3 cells = experiment: BrdUrd incorporation cell proliferation assay; type: cell-based; conditions: Homo sapiens, BXPC-3; BxPC3, 50 µM, 24 h
Method: (§1) The effect of KCN1 on cell proliferation was determined using the BrdUrd incorporation assay (Oncogene, La Jolla, CA) according to the manufacturer’s instructions, [47]. In brief, cells were seeded in 96-well plates (8 × 10^3 to 1.2 × 10^4 cells per well) and incubated with various concentrations of KCN1 (0, 5, 12.5 and 50 µM) for 24 h. BrdUrd was added to the medium 10 h before termination of the experiment. The BrdUrd incorporated into cells was determined by anti-BrdUrd antibody, and absorbance was measured at dual wavelengths of 450/540 nm using an OPTImax microplate reader (Molecular Devices; Sunnyvale, CA).

HPAC cells = experiment: BrdUrd incorporation cell proliferation assay; type: cell-based; conditions: Homo sapiens, 24 h
Method: as §1

Mia Paca-2 cells = experiment: BrdUrd incorporation cell proliferation assay; type: cell-based; conditions: Homo sapiens; Mia Paca-2, 50 µM, 24 h
Method: as §1

Panc-1 cells = experiment: BrdUrd incorporation cell proliferation assay; type: cell-based; conditions: Homo sapiens; Panc-1, 50 µM, 24 h
Method: as §1

S9 metabolism = type: in vitro ADME, CD2F1 mice
Method: The in vitro metabolism of KCN1 was determined using hepatic microsomal S9 fractions from CD2F1 mice (In Vitro Technologies, Boston, MA). The reaction mixture consisted of 20 µL of 1000 µM KCN1 (in DMSO) and 1280 µL of cold 100 mM Tris buffer (pH 7.4). The reactions were initiated by adding 200 µL of the appropriate S9 fraction, and were maintained at 37°C. […] Metabolic reactions were initiated by adding phase I (NADPH-regenerating systems) or phase II (UDPGA and PAPS) reagents to the reaction mixtures, respectively. At designated time points (0, 15, 30, 45, and 60 min), duplicate 100 µL portions of the incubation mixture were removed and subjected to HPLC analysis by the same procedure described for plasma samples above. The stability of the drug was determined by analysis of intact KCN1, in comparison with negative control (without S9 fractions).

[1] = Pharmacokinetic study in mice; type: in vivo, CD-1 mice; conditions: for dose recovered as parental KCN1 from urine: first 24 hr
Method: Female CD-1 and nude mice were administered 35 mg/kg body weight of KCN1 as either a single intravenous injection via a tail vein or via an intraperitoneal injection. At selected time points after dosing, groups of three mice/time point were subjected to a retro-orbital bleed. The blood was collected into heparinized tubes, and plasma was separated by centrifugation. Tissues (brain, skeletal muscle, kidneys, liver, spleen, and heart) were collected by necropsy. Urine and feces were collected on ice for 24 h from mice housed in metabolic cages (n = 3/study). The collection containers and cages were washed twice with 0.9% saline solution, and each urine collection and each wash was analyzed separately, then values were added together for each mouse to determine the total KCN1 present in urine during the collection period. Pharmacokinetic values were derived using Phoenix WinNonlin Version 6.0 (Mountain View, CA).
An HPLC protocol was developed to detect KCN1 in different matrices (plasma, urine or tissue homogenates) using an Agilent 1120 instrument. KCN1 was separated on a Zorbax SB-C18 (5 µm, 150 × 4.6 mm) analytical column with a Zorbax Reliance Cartridge Guard Column (SB-C18), and the eluate was monitored by UV at 254 nm. The mobile phase was composed of “A” (methanol +0.1% Et3N)-“B” (ddH2O+0.1% Et3N) (80∶20, v/v). Prior to application, the mobile phase was filtered and degassed using a Millipore glass filter system with a nylon membrane (0.2 µm). The peaks for KCN1 were used to establish standard curves and for quantitative analysis of samples. Quantification of the compound was achieved by determination of the peak area at the retention time of approximately 4.4 minutes.
Plasma (100 µL) was mixed with 200 µL of methanol, vortexed, and centrifuged to remove precipitated proteins. The supernatant was evaporated to dryness under a stream of air. The residue was dissolved in 100 µL of the mobile phase, and 10 µL was injected onto the HPLC system for analysis. Weighed tissues were homogenized in two to five volumes of PBS (based on the weight of the tissue samples), and portions of the homogenates were processed in the same manner as the plasma samples.

[2] = CD-1 mice, 35 mg/kg, either route

## COc1ccc(S(=O)(=O)N(Cc2ccc3c(c2)C=CC(C)(C)O3)c2ccccc2)cc1OC [KCN1, 3,4-dimethoxy-N-[(2,2-dimethyl-2H-chromen-6-yl)methyl]-N-phenylbenzenesulfonamide]
BxPC3 cells
  inhibition at 50 µM: ~88%
HPAC cells
  inhibition at 50 µM: ~80%
Mia Paca-2 cells
  inhibition at 50 µM: ~60%
Panc-1 cells
  inhibition at 50 µM: ~56%
S9 metabolism; mouse S9, phase I (oxidation) enzymes, NADPH-regenerating system
  decrease in amount of KCN1: more than 60%
S9 metabolism; mouse S9, phase II (conjugation) enzymes, UDPGA and PAPS
  half-life with phase II enzymes: relatively long half-life
[1]; CD-1 mice, 35 mg/kg I.P.
  dose recovered as parental KCN1 from urine: less than 0.5%
[1]; CD-1 mice, 35 mg/kg intravenously
  dose recovered as parental KCN1 from urine: less than 1%
[1]; [2]
  detection in brain: could not be detected after 6 h
  time detectable in heart, lungs, liver, spleen, kidneys and skeletal muscle: at least 24 h
[1]; CD-1 mice, I.P. 35 mg/kg
  time plasma concentration still detectable: ≥ 24 h
[1]; CD-1 mice, I.V. 35 mg/kg
  time plasma concentration still detectable: at least 6 h
[1]; female, mouse, plasma, ip, CD-1 mice, I.P. 35 mg/kg, read-out: time of maximum plasma level (converted)
  Tmax: 30 min
[1]; female, mouse, plasma, iv, CD-1 mice, I.V. 35 mg/kg, 6 h after dosing
  concentration at 6 h: < 300 ng/mL
[1]; female, mouse, plasma, iv, CD-1 mice, bolus I.V. 35 mg/kg, 5 minutes
  concentration at 5 min: 9980 ng/mL
[1]; female, mouse, Brain, CD-1, IP 35 mg/kg
  half-life: 188 min
[1]; female, mouse, Brain, CD-1, IP 35 mg/kg, read-out: Tmax
  Tmax: 60 min
[1]; female, mouse, Brain, CD-1, IV 35 mg/kg
  half-life: 31.8 min
[1]; female, mouse, Brain, CD-1, IV 35 mg/kg, read-out: Tmax
  Tmax: 4.8 min
[1]; female, mouse, Heart, CD-1, IP 35 mg/kg
  half-life: 131 min
[1]; female, mouse, Heart, CD-1, IP 35 mg/kg, read-out: Tmax
  Tmax: 10.2 min
[1]; female, mouse, Heart, CD-1, IV 35 mg/kg
  half-life: 1320 min
[1]; female, mouse, Heart, CD-1, IV 35 mg/kg, read-out: Tmax
  Tmax: 4.8 min
[1]; female, mouse, Kidneys, CD-1, IP 35 mg/kg
  half-life: 150 min
[1]; female, mouse, Kidneys, CD-1, IP 35 mg/kg, read-out: Tmax
  Tmax: 4.8 min
[1]; female, mouse, Kidneys, CD-1, IV 35 mg/kg
  half-life: 1130 min
[1]; female, mouse, Kidneys, CD-1, IV 35 mg/kg, read-out: Tmax
  Tmax: 4.8 min
[1]; female, mouse, Liver, CD-1, IP 35 mg/kg
  half-life: 210 min
[1]; female, mouse, Liver, CD-1, IP 35 mg/kg, read-out: Tmax
  Tmax: 240 min
[1]; female, mouse, Liver, CD-1, IV 35 mg/kg
  half-life: 69 min
[1]; female, mouse, Liver, CD-1, IV 35 mg/kg, read-out: Tmax
  Tmax: 4.8 min
[1]; female, mouse, Lungs, CD-1, IP 35 mg/kg
  half-life: 136 min
[1]; female, mouse, Lungs, CD-1, IP 35 mg/kg, read-out: Tmax
  Tmax: 15 min
[1]; female, mouse, Lungs, CD-1, IV 35 mg/kg
  half-life: 1400 min
[1]; female, mouse, Lungs, CD-1, IV 35 mg/kg, read-out: Tmax
  Tmax: 120 min
[1]; female, mouse, Muscle, CD-1, IP 35 mg/kg
  half-life: 112 min
[1]; female, mouse, Muscle, CD-1, IP 35 mg/kg, read-out: Tmax
  Tmax: 10.2 min
[1]; female, mouse, Muscle, CD-1, IV 35 mg/kg
  half-life: 91.2 min
[1]; female, mouse, Muscle, CD-1, IV 35 mg/kg, read-out: Tmax
  Tmax: 4.8 min
[1]; female, mouse, Plasma, CD-1, IP 35 mg/kg
  half-life: 441 min
[1]; female, mouse, Plasma, CD-1, IV 35 mg/kg
  half-life: 9.6 min
[1]; female, mouse, Spleen, CD-1, IP 35 mg/kg
  half-life: 141 min
[1]; female, mouse, Spleen, CD-1, IP 35 mg/kg, read-out: Tmax
  Tmax: 120 min
[1]; female, mouse, Spleen, CD-1, IV 35 mg/kg
  half-life: 27.6 min
[1]; female, mouse, Spleen, CD-1, IV 35 mg/kg, read-out: Tmax
  Tmax: 4.8 min
